Patent US10239925B2, “Peptides and combination of peptides for use in immunotherapy against ovarian cancer and other cancers” (IMMATICS BIOTECHNOLOGIES GMBH, priority 2015, dated 2019)

Tests used:
[1] = biological target: HLA-A*02:01 (Homo sapiens, UniProt P04439, D140Y/D185E/D98H/E176V/E277Q/G131W/G231S/I119V/I121R/I166T/I218V/L300P/L318F/N151K/N90K/P208A/P217A/Q86G/Q94H/R138H/R169H/T345S); assay: MHC binding assay (UV-ligand exchange, anti-β2m ELISA, peptide exchange yield); conditions: binding to HLA-A*02:01
Method in brief: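 Yield of stabilized complexes quantified via the β2m light chain in an ELISA (streptavidin capture, 100-fold diluted monomers, HRP anti-β2m 2 ug/ml at 37 °C, TMB, A450). The complexes come from UV-triggered replacement of a photocleavable ligand by the candidate peptide.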

[2] = tested on: CD8+ T cells; assay: In vitro immunogenicity: priming of CD8+ T cells with aAPCs loaded with peptide/MHC and anti-CD28, multimer readout; type: cell-based, human; conditions: for Wells positive [%]: HLA-A*02 restricted peptides, percentage of positive wells (among evaluable); for donors: percentage of positive donors; for wells: percentage of positive wells
Procedure: In an aspect, the peptides are pre-screened for immunogenicity before being included in the warehouse. By way of example, and not limitation, the immunogenicity of the peptides included in the warehouse is determined by a method comprising in vitro T-cell priming through repeated stimulations of CD8+ T cells from healthy donors with artificial antigen presenting cells loaded with peptide/MHC complexes and anti-CD28 antibody.
FIGS. 3A to 3F show exemplary immunogenicity data: flow cytometry results after peptide-specific multimer staining. CD8+ T cells were primed using artificial APCs coated with anti-CD28 mAb and HLA-A*02 in complex with SeqID No 662 (FIG. 3A, left panel), SeqID No 663 (FIG. 3B, left panel), SeqID No 11 peptide (FIG. 3C, left panel), SeqID No 198 peptide (FIG. 3D, left panel), SeqID No 587 peptide (FIG. 3E, left panel) and SeqID No 427 peptide (FIG. 3F, left panel), respectively. After three cycles of stimulation, the detection of peptide-reactive cells was performed by 2D multimer staining with A*02/SeqID No 662 (FIG. 3A), A*02/SeqID No 663 (FIG. 3B), A*02/SeqID No 11 (FIG. 3C), A*02/SeqID No 198 (FIG. 3D), A*02/SeqID No 587 (FIG. 3E) or A*02/SeqID No 427 (FIG. 3F). Right panels (FIGS. 3A, 3B, 3C, 3D, 3E, and 3F) show control staining of cells stimulated with irrelevant A*02/peptide complexes. Viable singlet cells were gated for CD8+ lymphocytes. Boolean gates helped excluding false-positive events detected with multimers specific for different peptides. Frequencies of specific multimer+ cells among CD8+ lymphocytes are indicated.
In Vitro Immunogenicity for MHC Class I Presented Peptides
In order to obtain information regarding the immunogenicity of the TUMAPs of the present invention, the inventors performed investigations using an in vitro T-cell priming assay based on repeated stimulations of CD8+ T cells with artificial antigen presenting cells (aAPCs) loaded with peptide/MHC complexes and anti-CD28 antibody.
In Vitro Priming of CD8+ T Cells
In order to perform in vitro stimulations by artificial antigen presenting cells loaded with peptide-MHC complex (pMHC) and anti-CD28 antibody, the inventors first isolated CD8+ T cells from fresh HLA-A*02 leukapheresis products via positive selection using CD8 microbeads (Miltenyi Biotec, Bergisch-Gladbach, Germany) of healthy donors obtained from the University clinics Mannheim, Germany, after informed consent.
PBMCs and isolated CD8+ lymphocytes were incubated in T-cell medium (TCM) until use consisting of RPMI-Glutamax (Invitrogen, Karlsruhe, Germany) supplemented with 10% heat inactivated human AB serum (PAN-Biotech, Aidenbach, Germany), 100 U/ml Penicillin/100 μg/ml Streptomycin (Cambrex, Cologne, Germany), 1 mM sodium pyruvate (CC Pro, Oberdorla, Germany), 20 μg/ml Gentamycin (Cambrex). 2.5 ng/ml IL-7 (PromoCell, Heidelberg, Germany) and 10 U/ml IL-2 (Novartis Pharma, Nümberg, Germany) were also added to the TCM at this step.
Generation of pMHC/anti-CD28 coated beads, T-cell stimulations and readout was performed in a highly defined in vitro system using four different pMHC molecules per stimulation condition and 8 different pMHC molecules per readout condition.
The purified co-stimulatory mouse IgG2a anti human CD28 Ab 9.3 (Jung et al., 1987) was chemically biotinylated using Sulfo-N-hydroxysuccinimidobiotin as recommended by the manufacturer (Perbio, Bonn, Germany). Beads used were 5.6 μm diameter streptavidin coated polystyrene particles (Bangs Laboratories, Illinois, USA).
pMHC used for positive and negative control stimulations were A*0201/MLA-001 (peptide […] (SEQ ID NO. 664) from modified Melan-A/MART-1) and A*0201/DDX5-001 ([…] from DDX5, SEQ ID NO. 665), respectively.
800.000 beads/200 μl were coated in 96-well plates in the presence of 4×12.5 ng different biotin-pMHC, washed and 600 ng biotin anti-CD28 were added subsequently in a volume of 200 μl. […]

Substance | Peptide exchange (MHC class I binding score, peptide exchange yield) [1] | Wells positive [%] [2] | donors [2] | wells [2]
108 (ALFPGVALLLA; listed as Homo sapiens) [compound 108] | “++++” (>75% = ++++) | “++” (20% - 49% = ++) |  | 
2 (SLLEADPFL; listed as Homo sapiens) [compound 2] | “+++” (>50 = +++) | “+” (<20% = +) |  | 
49 (YLPAVFEEV; listed as Homo sapiens) [compound 49] | “+++” (>50 = +++) | “++” (20% - 49% = ++) |  | 
141 (YLDFSNNRL; listed as Homo sapiens) [compound 141] | “++” (>20% = ++) | “+” (<20% = +) |  | 
60 (SLTIDGIYYV; listed as Homo sapiens) [compound 60] | “++++” (>75% = ++++) | “++++” (≥70% = ++++) |  | 
56 (KLYEGIPVLL; listed as Homo sapiens) [compound 56] | “++++” (>75% = ++++) | “+” (<20% = +) |  | 
152 (ILFEDIFDV; listed as Homo sapiens) [compound 152] | “+++” (>50 = +++) | “++” (20% - 49% = ++) |  | 
3 (SLASKLTTL; listed as Homo sapiens) [compound 3] | “++++” (>75% = ++++) | “+” (<20% = +) |  | 
79 (SLFIGEKAVLL; listed as Homo sapiens) [compound 79] | “+++” (>50 = +++) | “+” (<20% = +) |  | 
40 (TLLVKVFSV; listed as Homo sapiens) [compound 40] | “+++” (>50 = +++) | “++” (20% - 49% = ++) |  | 
17 (GLLPGDRLVSV; listed as Homo sapiens) [compound 17] | “+++” (>50 = +++) | “++” (20% - 49% = ++) |  | 
38 (FLLEDDIHVS; listed as Homo sapiens) [compound 38] | “+++” (>50 = +++) | “+” (<20% = +) |  | 
659 (ILFPDIIARA; listed as Homo sapiens) [compound 659] |  |  | +++ (50% - 69% = +++) | + (<20% = +)
662 (KIQEILTQV; listed as Homo sapiens) [compound 662] |  |  | +++ (50% - 69% = +++) | + (<20% = +)
36 (YVLEDLEVTV; listed as Homo sapiens) [compound 36] | “++” (>20% = ++) | “+” (<20% = +) |  | 
143 (LLLDITPEI; listed as Homo sapiens) [compound 143] | “++++” (>75% = ++++) | “+” (<20% = +) |  | 
48 (ALAELYEDEV; listed as Homo sapiens) [compound 48] | “+++” (>50 = +++) | “+” (<20% = +) |  | 
61 (FLQGYQLHL; listed as Homo sapiens) [compound 61] | “++++” (>75% = ++++) | “++” (20% - 49% = ++) |  | 
648 (LLWGNAIFL; listed as Homo sapiens) [compound 648] |  |  | +++ (50% - 69% = +++) | ++ (20% - 49% = ++)
652 (TLWYRAPEV; listed as Homo sapiens) [compound 652] |  |  | ++++ (≥70% = ++++) | +++ (50% - 69% = +++)
663 (KIQEMQHFL; listed as Homo sapiens) [compound 663] |  |  | +++ (50% - 69% = +++) | + (<20% = +)

More lines, main results first:

Peptide exchange (MHC class I binding score, peptide exchange yield) [1] | Substance | Wells positive [%] [2] | donors [2] | wells [2]
“+++” (>50 = +++) | 443 (GLWEIENNPTV; listed as Homo sapiens) [compound 443] | “+” (<20% = +) |  | 
“+++” (>50 = +++) | 518 (KLNAEVACV; listed as Homo sapiens) [compound 518] | “++” (20% - 49% = ++) |  | 
“++” (>20% = ++) | 157 (SLNDEVPEV; listed as Homo sapiens) [compound 157] | “+++” (50% - 69% = +++) |  | 
“+++” (>50 = +++) | 489 (KMWEELPEVV; listed as Homo sapiens) [compound 489] | “+” (<20% = +) |  | 
“++” (>20% = ++) | 191 (LLQEGQALEYV; listed as Homo sapiens) [compound 191] | “+++” (50% - 69% = +++) |  | 
“++” (>20% = ++) | 511 (FLDPYCSASV; listed as Homo sapiens) [compound 511] | “+” (<20% = +) |  | 
“+++” (>50 = +++) | 463 (SLVESHLSDQLTL; listed as Homo sapiens) [compound 463] | “++” (20% - 49% = ++) |  | 
“++” (>20% = ++) | 242 (AIAYILQGV; listed as Homo sapiens) [compound 242] | “+++” (50% - 69% = +++) |  | 
“++” (>20% = ++) | 319 (SLEPQIQPV; listed as Homo sapiens) [compound 319] | “+” (<20% = +) |  | 
“+++” (>50 = +++) | 198 (KTINKVPTV; listed as Homo sapiens) [compound 198] | “++” (20% - 49% = ++) |  | 
“+++” (>50 = +++) | 384 (ILFANPNIFV; listed as Homo sapiens) [compound 384] | “+” (<20% = +) |  | 
“++++” (>75% = ++++) | 460 (AMLEKNYKL; listed as Homo sapiens) [compound 460] | “+” (<20% = +) |  | 
“+++” (>50 = +++) | 604 (SILDRDDIFV; listed as Homo sapiens) [compound 604] |  |  | 
“++” (>20% = ++) | 226 (MLYVVPIYL; listed as Homo sapiens) [compound 226] |  |  | 
“++” (>20% = ++) | 253 (GLDAATATV; listed as Homo sapiens) [compound 253] |  |  | 
“+++” (>50 = +++) | 263 (LLVSNLDFGV; listed as Homo sapiens) [compound 263] |  |  | 
“++” (>20% = ++) | 516 (AVGPASILKEV; listed as Homo sapiens) [compound 516] |  |  | 
